Laboratory results from patent US4308210A, “Nanaomycin B and therapeutic compositions containing same” (The Kitasato Institute, priority 1976, dated 1981).
Converted amounts (≈) assume the structure as drawn.

Key:
Assay type in all cases: cell-based
[1] = tested on: Aspergillus fumigatus; assay: Antifungal activity, agar dilution method; conditions: potato agar, pH 6.4, 27° C., 4 days
Description: (§1) Minimal inhibitory concentration is assayed by agar dilution method
(§2) (potato agar, pH 6.4, 27° C., 4 days)

[2] = tested on: Aspergillus niger; assay: Antifungal activity, agar dilution method; conditions: potato agar, pH 6.4, 27° C., 4 days
Description: as §1, §2

[3] = tested on: Candida albicans; assay: Antifungal activity, agar dilution method; conditions: potato agar, pH 6.4, 27° C., 4 days
Description: as §1, §2

[4] = tested on: Microsporum gypseum; assay: Antifungal activity, agar dilution method; conditions: potato agar, pH 6.4, 27° C., 4 days
Description: as §1, §2

[5] = tested on: Saccharomyces sake; assay: Antifungal activity, agar dilution method; conditions: potato agar, pH 6.4, 27° C., 4 days
Description: as §1, §2

[6] = tested on: Trichophyton asteroides; assay: Antifungal activity, agar dilution method; conditions: potato agar, pH 6.4, 27° C., 4 days
Description: as §1, §2

[7] = tested on: Trichophyton ferrugineum; assay: Antifungal activity, agar dilution method; conditions: potato agar, pH 6.4, 27° C., 4 days
Description: as §1, §2

[8] = tested on: Trichophyton interdigitale; assay: Antifungal activity, agar dilution method; conditions: potato agar, pH 6.4, 27° C., 4 days
Description: as §1, §2

[9] = tested on: Trichophyton rubrum; assay: Antifungal activity, agar dilution method; conditions: potato agar, pH 6.4, 27° C., 4 days
Description: as §1, §2

[10] = tested on: Trichophyton schoenleini; assay: Antifungal activity, agar dilution method; conditions: potato agar, pH 6.4, 27° C., 4 days
Description: as §1, §2

[11] = tested on: Trichophyton violaceum; assay: Antifungal activity, agar dilution method; conditions: potato agar, pH 6.4, 27° C., 4 days
Description: as §1, §2

[12] = tested on: mycoplasma; assay: Antimycoplasma activity, paper disc method; conditions: Eiken PPLO agar, pH 7.8, 37° C., 1 day
Description: Inhibitory zone is assayed by paper disc method (Eiken PPLO agar, pH 7.8,

[13] = Trichophyton, 96 h, read-out: Minimal Inhibitory Con.

For ethylkalafunginate, the “Minimal Inhibitory Con.” value [1] was over 100 µg/mL, the “Minimal Inhibitory Con.” value [2] was over 100 µg/mL and the “Minimal Inhibitory Con.” value [3] was over 100 µg/mL. For the same compound, the “Minimal Inhibitory Con.” value [4] was over 100 µg/mL, the “Minimal Inhibitory Con.” value [5] was over 100 µg/mL and the “Minimal Inhibitory Con.” value [6] was over 100 µg/mL. The “Minimal Inhibitory Con.” value [7] was over 100 µg/mL, the “Minimal Inhibitory Con.” value [8] was over 100 µg/mL and the “Minimal Inhibitory Con.” value [9] was over 100 µg/mL. For the same compound, the “Minimal Inhibitory Con.” value [10] was over 100 µg/mL, the “Minimal Inhibitory Con.” value [11] was over 100 µg/mL and the “Inhibitory Zone” value ([12]; 10 μg/ml) was “none”. For the same compound, the “Inhibitory Zone” value ([12]; 100 μg/ml) was “none”.

`CCC[C@H]1O[C@H](CC(=O)O)CC2=C1C(=O)c1c(O)cccc1C2=O` [Deoxyfrenolicin, deoxyfrenolicin] was tested, and the MIC ([1]; Aspergillus fumigatus, 96 h, read-out: Minimal Inhibitory Con.) was 6.3 mg/L (≈ 19.1 µM), the MIC ([2]; Aspergillus niger, 96 h, read-out: Minimal Inhibitory Con.) was over 100 mg/L and the MIC ([3]; Candida albicans, 96 h, read-out: Minimal Inhibitory Con.) was 50 mg/L (≈ 151 µM). For the same compound, the MIC ([4]; Nannizzia gypsea, 96 h, read-out: Minimal Inhibitory Con.) was under 0.2 mg/L, the MIC ([5]; Saccharomyces, 96 h, read-out: Minimal Inhibitory Con.) was 6.3 mg/L (≈ 19.1 µM) and the MIC [6, 13] was under 0.2 mg/L. It also gave an MIC ([7]; Microsporum ferrugineum, 96 h, read-out: Minimal Inhibitory Con.) of 3.1 mg/L (≈ 9.38 µM), an MIC ([8]; Trichophyton interdigitale, 96 h, read-out: Minimal Inhibitory Con.) of 0.4 mg/L (≈ 1.21 µM) and an MIC ([9]; Trichophyton rubrum, 96 h, read-out: Minimal Inhibitory Con.) of under 0.2 mg/L. It also gave an MIC [10, 13] of under 0.2 mg/L, an MIC ([11]; Trichophyton violaceum, 96 h, read-out: Minimal Inhibitory Con.) of 0.8 mg/L (≈ 2.42 µM) and a zone of inhibition at 10 µg/mL ([12]; Mycoplasma, 24 h, 10 μg/ml, read-out: Inhibitory Zone) of 14.6 mm. For the same compound, the zone of inhibition at 100 µg/mL ([12]; Mycoplasma, 24 h, 100 μg/ml, read-out: Inhibitory Zone) was 21.8 mm.
